Patent US20260232639A1, “COMPOUNDS FOR USE IN THE TREATMENT OF SCHIZOPHRENIA” (ONTRACK THERAPEUTICS LIMITED, priority 2023, published 2026)

Experiments:
[1] = target: tropomyosin receptor kinase B (TrkB) (Homo sapiens, UniProt Q16620); conditions: known from the art; cited from earlier work
scPCP treated rats [2] = test: Novel object recognition (NOR) test in sub-chronic PCP treated rats; conditions: for Time spent exploring the novel versus familiar object in the retention trial (FIG. 6): 20-day treatment with compound of Formula I 10 & 30 mg/kg p.o.; for Time spent exploring the novel versus familiar object in the retention trial (FIG. 2): compound of Formula I 10 & 30 mg/kg p.o.
scPCP treated rats [3] = test: Social interaction test in sub-chronic PCP treated rats; conditions: for Object exploration duration, inanimate object (FIG. 10): 21-day test article 10 & 30 mg/kg p.o.
scPCP treated rats [4] = conditions: 7-day treatment; female rats; McLean et al., 2008, 2012; cited from earlier work
scPCP treated rats [5] = test: Attentional set-shifting task (ASST) in sub-chronic PCP treated rats; conditions: for Number of trials to criterion in the EDS phase (FIG. 20): 21-day treatment, compared to scPCP group
SNAP25 = test: Simple Western of synaptic marker SNAP25 in prefrontal cortex of scPCP-treated rats; format: in vivo, rat; conditions: 21-day treatment; for SNAP25 levels in the total prefrontal cortex (FIG. 18): Example 3, vs scPCP; for scPCP-induced loss of SNAP25, relative protein level in prefrontal cortex (FIG. 21): Example 4
Description: (§1) Remaining ½ brains (remaining hemispheres) were processed for protein analysis of BDNF using ELISA (quantified in the prefrontal cortex and the dorsal hippocampus) and synaptic markers using Simple Western (quantified in the prefrontal cortex).
(§2) Prefrontal Cortex and dorsal hippocampus were dissected from the frozen brain and homogenised on ice in a 10-fold volume (mg:μL) of buffer (10 mM Trizma base, Sigma-Aldrich; […] sucrose, Sigma-Aldrich; 2 mM EDTA, Sigma-Aldrich; and protease- and phosphatase-inhibitor cocktails, Sigma-Aldrich) buffered to a pH of 7.4. Phenylmethylsulfonyl fluoride (PMSF) and sodium orthovanadate were added to the solution at a 1% (v/v) concentration. Samples were centrifuged at 800×g for 15 minutes at 4° C. The supernatant was collected and centrifuged at 11,700×g for 20 minutes, and the resulting supernatant was collected and stored at −20° C. until analysis.
Protein concentrations of each sample were calculated using a Bradford Assay. Samples were diluted into protein assay dye reagent concentrate (BioRad) and compared to bovine serum albumin (Sigma) of known concentration (1.0-0.1 mg/ml protein). A standard curve was created using a simple linear regression. Standards and samples were run in triplicate. An outlying value from a triplicate was removed if the CV value was greater than 10%.
A WES plate was prepared following the provided instructions (SM-W004, ProteinSimple). Diluted samples were mixed with dithiothreitol and fluorescent master mix in an 8:1:1 ratio. Samples were denatured at 95° C. for five minutes. The samples, antibody diluent, primary antibody, secondary antibody and luminol-peroxide mix were loaded into appropriate wells. A biotinylated ladder, antibody diluent, streptavidin-HRP and luminol peroxide were also loaded. After brief centrifugation of the plate, wash buffer was added. The plate was then placed into the WES machine, whereby the load separation matrix is aspirated, and stacking matrix drawn up into each capillary. […] Finally, the chemiluminescent substrate was added into the capillaries, and the camera detected the levels of chemiluminescence at 9 different timepoints (1-512 seconds). The software then calculated the high dynamic range (HDR) of the peaks, which is calculated from the individual exposures and provides the largest dynamic range of the signal with the lowest background. The HDR peak is then used to calculate the area under the curve, which is analogous to the quantity of protein in the sample. […]
(§3) BDNF and synaptic markers were analysed using a one-way ANOVA followed by planned post hoc analysis to investigate differences between treatment groups for Prefrontal Cortex (BDNF & Synaptic markers) and Dorsal Hippocampus (BDNF) respectively.

parvalbumin interneurons = test: Parvalbumin immunohistochemistry in brains of scPCP-treated rats; format: in vivo, rat; conditions: 21-day treatment, 30 mg/kg p.o.
Description: Animals were culled by increasing concentration of carbon dioxide and death was confirmed by cervical dislocation. Brains were removed, frozen on dry ice and stored at −80° C. until analysis.
½ brains (one hemisphere) were randomly selected and processed for parvalbumin immunohistochemistry (IHC), quantified in the prefrontal cortex and dorsal hippocampus.
Sections (30 μm thickness) were washed in 1× PBS three times for five minutes each. Sections underwent heat-induced antigen retrieval in sodium citrate buffer (0.294% (w/v) sodium citrate, 0.07% (v/v) tween-20, 500 ml distilled water, pH adjusted to 6.0) for 30 minutes at 80° C. Unless otherwise stated, samples were washed twice in 1× PBS between each step.
Parvalbumin (PV) sections were processed for light microscopy. […]
Images were acquired on a 3D-Histech Pannoramic-250 microscope slide-scanner using a 20×/0.80 Plan Apochromat objective (Zeiss). […] For PV images, the region of interest was delineated, and the number of cell detections were manually counted within the CaseViewer software. Density was calculated by dividing the number of positive cell detections by the area of the region of interest.
Parvalbumin density in the Prefrontal Cortex and Dorsal Hippocampus were analysed using a repeated measure two-way ANOVA with region and treatment as fixed factors. […]

BDNF = BDNF ELISA in brain tissue of scPCP-treated rats; format: in vivo, rat; conditions: Example 4; 21-day treatment; two different protein concentrations
Description: as §1, §2
Protein concentrations of each sample were calculated using a Bradford Assay. Samples were diluted into protein assay dye reagent concentrate (BioRad) and compared to bovine serum albumin (Sigma) of known concentration (1.0-0.1 mg/ml protein). […]
as §3

PSD95 = test: Simple Western of synaptic marker PSD95 in prefrontal cortex of scPCP-treated rats; format: in vivo, rat; conditions: Example 4, 21-day treatment
Description: as §1
as §2, with “The supernatant was collected and centrifuged at 11,700×g for 20 minutes, and the resulting supernatant was collected and stored at −20° C. until analysis.” left out
Protein concentrations of each sample were calculated using a Bradford Assay. […]
A WES plate was prepared following the provided instructions (SM-W004, ProteinSimple). […] Finally, the chemiluminescent substrate was added into the capillaries, and the camera detected the levels of chemiluminescence at 9 different timepoints (1-512 seconds). The software then calculated the high dynamic range (HDR) of the peaks, which is calculated from the individual exposures and provides the largest dynamic range of the signal with the lowest background. The HDR peak is then used to calculate the area under the curve, which is analogous to the quantity of protein in the sample. […]

[6] = 20-day phase, scPCP rats, acute risperidone 0.1 mg/kg i.p.
[7] = acute risperidone 0.1 mg/kg i.p., scPCP rats
[8] = acute phase, scPCP rats, risperidone 0.1 mg/kg i.p., 60 min prior to testing
[9] = acute treatment, risperidone 0.1 mg/kg i.p., scPCP rats
[10] = acute risperidone 0.1 mg/kg i.p.

Sequence of tropomyosin receptor kinase B (TrkB) (Q16620 32-822, species assumed): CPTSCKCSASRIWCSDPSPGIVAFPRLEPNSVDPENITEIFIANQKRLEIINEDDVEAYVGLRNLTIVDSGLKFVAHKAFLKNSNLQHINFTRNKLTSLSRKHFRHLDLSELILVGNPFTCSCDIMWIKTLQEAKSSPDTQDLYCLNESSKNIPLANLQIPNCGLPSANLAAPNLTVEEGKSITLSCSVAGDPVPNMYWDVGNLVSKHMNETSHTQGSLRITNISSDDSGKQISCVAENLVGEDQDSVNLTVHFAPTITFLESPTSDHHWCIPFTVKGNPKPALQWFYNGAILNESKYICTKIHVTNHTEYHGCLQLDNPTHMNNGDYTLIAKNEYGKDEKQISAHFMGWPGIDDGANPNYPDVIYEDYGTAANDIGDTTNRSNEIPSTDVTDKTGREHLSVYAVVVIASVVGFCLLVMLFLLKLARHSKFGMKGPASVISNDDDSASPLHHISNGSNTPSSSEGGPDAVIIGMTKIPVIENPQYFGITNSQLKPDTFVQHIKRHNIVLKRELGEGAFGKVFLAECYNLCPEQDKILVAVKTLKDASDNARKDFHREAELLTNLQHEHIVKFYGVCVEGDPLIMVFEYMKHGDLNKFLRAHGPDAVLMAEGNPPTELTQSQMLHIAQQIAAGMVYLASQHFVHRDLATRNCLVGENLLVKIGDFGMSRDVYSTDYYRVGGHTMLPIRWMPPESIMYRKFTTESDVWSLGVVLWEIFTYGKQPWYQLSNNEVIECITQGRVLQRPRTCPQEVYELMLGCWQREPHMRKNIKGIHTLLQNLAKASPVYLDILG

O=c1cc(-c2ccccc2)oc2c(O)c(O)ccc12 [tropoflavin, 7,8-dihydroxyflavone]
Agonism of TrkB [1]: potent and selective agonist

Cc1nc2n(c(=O)c1CCN1CCC(c3noc4cc(F)ccc34)CC1)CCCC2 [Risperidone, risperidone]
Acquisition total exploration time (scPCP treated rats [2]; [6]): 25.5 ± 3.4 s | Retention total exploration time (scPCP treated rats [2]; [6]): 17.8 ± 1.1 s | Time spent exploring the novel versus familiar object in the retention trial (FIG. 6) (scPCP treated rats [2]; [7]): statistically significant increase | Acquisition total exploration time (scPCP treated rats [2]; [8]): 22.81 ± 4.03 s | Retention total exploration time (scPCP treated rats [2]; [8]): 23.10 ± 2.92 s | Time spent exploring the novel versus familiar object in the retention trial (FIG. 2) (scPCP treated rats [2]; [9]): statistically significant increase | Discrimination index (DI) (FIG. 3) (scPCP treated rats [2]; [9]): higher discrimination index (DI) than those without treatment | Object exploration duration, inanimate object (FIG. 10) (scPCP treated rats [3]; [10]): no differences | Sniffing duration (FIG. 9) (scPCP treated rats [3]; acute risperidone 0.1 mg/kg i.p., 60 min prior to testing): increase the amount of time the rat spent sniffing to a similar level as that observed by the higher dose of test article | Reversal of scPCP deficit in the extra-dimensional shift (scPCP treated rats [4]): reversed | scPCP-induced deficit in the EDS phase (FIG. 20) (scPCP treated rats [5]; [10]): significantly (P<0.01) reversed

N#Cc1ccc(-c2cc(=O)c3ccc4[nH]c(C(F)(F)F)nc4c3o2)cc1 [Compound of Formula I, 4-(6-oxo-2-(trifluoromethyl)-3,6-dihydrochromeno[7,8-d]imidazol-8-yl)benzonitrile]
Time spent exploring the novel versus familiar object in the retention trial (FIG. 6) (scPCP treated rats [2]; [7]): dose dependent statistically significant effect | Discrimination index (DI) (FIG. 7) (scPCP treated rats [2]; 20-day treatment, 30 mg/kg p.o., compared to scPCP animals without treatment): statistically significant increase | Time spent exploring the novel versus familiar object in the retention trial (FIG. 2) (scPCP treated rats [2]; [9]): not shown to have a difference | SNAP25 levels in the total prefrontal cortex (FIG. 18) (SNAP25; 10 mg/kg p.o.): increased significantly | SNAP25 levels in the total prefrontal cortex (FIG. 18) (SNAP25; 30 mg/kg p.o.): not | scPCP-induced loss of SNAP25, relative protein level in prefrontal cortex (FIG. 21) (SNAP25; 30 mg/kg p.o.): not | scPCP-induced loss of SNAP25, relative protein level in prefrontal cortex (FIG. 21) (SNAP25; 3 and 10 mg/kg p.o.): significantly alleviated | PV cell density in the total prefrontal cortex (FIG. 13) (parvalbumin interneurons; compared to scPCP group): significantly increased | PV cell density in subregions of the prefrontal cortex (Cg1, PrL, IL) (FIG. 12) (parvalbumin interneurons; vs scPCP): significantly increased | Concentration of BDNF in the dorsal hippocampus (FIG. 22) (BDNF): increase the level of BDNF back to that of vehicle treated animals | scPCP-induced loss of PSD95, relative protein level in prefrontal cortex (FIG. 21) (PSD95; 30 mg/kg p.o.): not | scPCP-induced loss of PSD95, relative protein level in prefrontal cortex (FIG. 21) (PSD95; 3 and 10 mg/kg p.o.): significantly alleviated | Object exploration duration, inanimate object (FIG. 10) (scPCP treated rats [3]; [10]): no differences | Sniffing duration, social impairment deficit (FIG. 9) (scPCP treated rats [3]; 21-day treatment, 10 & 30 mg/kg p.o.): able to rescue the social impairment deficit in the scPCP treated rats in a dose dependent manner | Number of trials to criterion in the EDS phase (FIG. 20) (scPCP treated rats [5]; 3 mg/kg p.o.): No significant reduction | Number of trials to criterion in the EDS phase (FIG. 20) (scPCP treated rats [5]; 10 mg/kg p.o.): near significant reductions | Number of trials to criterion in the EDS phase (FIG. 20) (scPCP treated rats [5]; 30 mg/kg p.o.): significant reductions

O=C(CCCN1CCC(O)(c2ccc(Cl)cc2)CC1)c1ccc(F)cc1 [haloperidol]
Reversal of scPCP deficit in the extra-dimensional shift (scPCP treated rats [4]): not
